Experimental data reported in patent publication US12643867B2, “Compositions and uses thereof” (University of Virginia Patent Foundation, priority 2017, dated 2026).

Target: T1, DGKQ (Diacylglycerol kinase theta) (Homo sapiens, UniProt P52824)
T1 construct: expressed in transfected cells; host or cells: SILAC HEK293T
T1 sequence (P52824 1-942): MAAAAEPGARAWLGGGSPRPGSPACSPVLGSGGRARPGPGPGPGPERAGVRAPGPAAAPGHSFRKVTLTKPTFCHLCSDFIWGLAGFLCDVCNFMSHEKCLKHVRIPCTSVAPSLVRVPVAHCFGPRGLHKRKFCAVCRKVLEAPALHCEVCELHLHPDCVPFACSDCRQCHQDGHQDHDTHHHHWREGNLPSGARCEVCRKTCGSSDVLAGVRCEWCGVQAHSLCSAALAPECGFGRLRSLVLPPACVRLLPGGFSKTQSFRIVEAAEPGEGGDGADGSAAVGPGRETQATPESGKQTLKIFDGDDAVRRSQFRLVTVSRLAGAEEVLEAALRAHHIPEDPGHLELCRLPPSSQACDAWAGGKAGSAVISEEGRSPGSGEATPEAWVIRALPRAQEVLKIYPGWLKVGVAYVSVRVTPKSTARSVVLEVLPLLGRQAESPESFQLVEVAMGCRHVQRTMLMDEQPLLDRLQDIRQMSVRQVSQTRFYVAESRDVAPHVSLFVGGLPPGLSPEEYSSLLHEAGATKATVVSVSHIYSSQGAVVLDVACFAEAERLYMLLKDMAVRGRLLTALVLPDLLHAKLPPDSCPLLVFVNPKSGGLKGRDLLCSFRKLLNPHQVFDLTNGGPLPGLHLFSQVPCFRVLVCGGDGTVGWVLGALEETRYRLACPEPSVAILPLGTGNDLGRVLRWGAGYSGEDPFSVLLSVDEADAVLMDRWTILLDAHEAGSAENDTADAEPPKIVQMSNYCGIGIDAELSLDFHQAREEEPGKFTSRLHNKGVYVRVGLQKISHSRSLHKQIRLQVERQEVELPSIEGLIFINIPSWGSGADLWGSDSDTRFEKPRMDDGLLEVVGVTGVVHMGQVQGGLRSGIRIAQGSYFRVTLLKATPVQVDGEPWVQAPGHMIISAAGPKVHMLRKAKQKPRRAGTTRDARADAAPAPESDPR
Assay: SILAC LC-MS ATP acyl phosphate probe competition, recombinant DGK-HEK293T lysates
Assay type: binding
Conditions: ATP 1 mM, Ketanserin, Ritanserin 100 μM, RF001 1 mM; for SILAC ratio, DGKQ C1 probe-modified peptide: site C1 (K202); for SILAC ratio, DGKQ DAGKa probe-modified peptide: site DAGKa (K768); for SILAC ratio, DGKQ DAGKc probe-modified peptide: site DAGKc (K596)
From the text: Recombinant DGK proteins were produced by transient transfection of HEK293T cells with recombinant DNA. pDONR223-DGKK was a gift from William Hahn & David Root (Addgene plasmid #23487). pCSF107mT-GATEWAY-3′-FLAG was a gift from Todd Stukenberg (Addgene plasmid #67619). pCSF107mT-DGKK-FLAG construct was generated by recombination of the Addgene plasmids using the Gateway cloning system (Invitrogen). All other vectors were gifted to Dr. Kevin Lynch (University of Virginia, School of Medicine) by Dr. Kaoru Goto (Yamagata University, School of Medicine) and Dr. Fumio Sakane (Chiba University) and were kindly shared with us: pcDNA3-FLAG-DGKA (rat), pCMV-Tag2B-FLAG-DGKQ (human), pcDNA3-DGKE-3×Flag (human), and pCMV-SPORT6-HA-DGKZ (human). HEK293T cells were plated at a concentration of 400,000 cells in complete DMEM and grown to 50-60% confluency. A polyethyleneimine (PEI) stock solution was prepared (1 mg/mL, pH 7.4) and filter sterilized. Serum-free DMEM (600 μL) was mixed gently with 2.6 μg DNA and 20 μL of sterile PEI (1 mg/mL, pH 7.4) in a sterile microfuge tube. Mixtures were incubated for 30 min at 25° C. The mixture was then added drop-wise to each 10 cm^2 plate, rocked back and forth to mix, and placed back in the incubator. Cell pellets were harvested after two full days of growth, snap-frozen in liquid N2, and stored at −80° C. until use. Recombinant proteins were produced by transient transfection in SILAC HEK293T cells using the procedure described above, except that cells were plated at a concentration of 1×10^6 cells per 10 cm^2 plate and grown to ˜70% confluency prior to introducing transfection mixture.
Proteomes were diluted to 2 mg/ml in kinase buffer. The light and heavy proteomes (0.5 mg, 250 μL total reaction volume) were pre-treated with vehicle or compound, respectively (5 μL, DMSO (light) or 50× stock in DMSO (heavy)), mixed gently, and incubated at 25° C. for 30 min. […] After incubation, matched light and heavy proteomes were transferred and mixed in a 1:1 ratio in a two-dram vial containing 4:1:3 MeOH/CHCl3/H2O (2 mL MeOH, 500 AL CHCl3, 1.5 mL H2O) for extraction of proteins to remove excess probe, quickly vortexed, and centrifuged at 1,400×g for 3 min to pellet protein. Organic and aqueous layers were removed using a Pasteur pipette, and the protein pellet was transferred to a screw-top tube in 600 μL MeOH. A second extraction was performed by adding CHCl3 (150 μL) and H2O (600 μL) to each sample, vortexed, and centrifuged at 1,400×g for 3 min to pellet protein. Organic and aqueous layers were removed by pipetting. MeOH added to pellet (600 μL) and pellets were re-suspended by sonication (3×1 sec pulse, 20% amplitude) for a final extraction. Samples were then centrifuged at 17,000×g for 5 min to pellet protein and MeOH was removed by pipetting. The pellets were re-suspended in 10 M urea/25 mM ammonium bicarbonate ([…]), brought to a final volume of 1 mL with 25 mM ammonium bicarbonate, reduced with 10 mM DTT for 15 min at 65° C. allowed to cool, and then alkylated with 40 mM iodoacetamide for 30 min at 25° C. in the dark. To desalt the samples, each was transferred to a two-dram glass vial, and to the vial 4:1:2 MeOH/CHCl3/H2O (2 mL MeOH, 500 AL CHCl3, 1 mL H2O) was added. The vials were vortexed quickly, spun at 1.400×g for 3 min to pellet protein, and aqueous and organic layers were removed using a Pasteur pipette. The resulting protein pellet was transferred to a screw-top tube in 600 μL MeOH, and then CHCl3 (150 μL) and HO (600 μL) were added to extract protein a second time. The samples were vortexed quickly, centrifuged at 1,400×g to pellet protein, and the aqueous and organic layers were removed by pipetting. Resulting protein pellet was suspended in MeOH (600 μL) via sonication (3×1 sec pulse, 20% amplitude), centrifuged at 17,000×g for 5 min to pellet protein, and MeOH removed by pipetting. […]

Row | SMILES | SILAC ratio, DGKQ C1 probe-modified peptide | SILAC ratio, DGKQ DAGKa probe-modified peptide | SILAC ratio, DGKQ DAGKc probe-modified peptide
1 | O=C(c1ccc(F)cc1)C1CCN(CCn2c(=O)[nH]c3ccccc3c2=O)CC1 [Ketanserin] | 0.9 | 1.1 | 1.2
2 | Cc1nc2sccn2c(=O)c1CCN1CCC(=C(c2ccc(F)cc2)c2ccc(F)cc2)CC1 [Ritanserin] | 1.3 | 1.4 | 1.1
3 | Fc1ccc(C(=C2CCNCC2)c2ccc(F)cc2)cc1 [RF001, 4-(Bis(4-fluorophenyl)methylene) piperidine] | 0.7 | 1.2 | 0.9
